Key:
mouse T cells = experiment: Mouse T cell migration in Transwell chambers with matrigel; type: cell-based; details: in the presence of S1P; FIG. 14
Description: To further elucidate the role of the Edg-1 receptor in lymphocyte trafficking, migration of mouse T cells was analyzed in both in vitro and in vivo models. Migration of mouse T cells was first tested in Transwell chambers (Costar, Cambridge, Mass.) with polycarbonate fibers having a pore width of 8 μm, separated by a layer of matrigel. Stimulants S1P or exodus-2 were separately added to the bottom chamber. The effects of exodus-2 were tested alone, with S1P, and with S1P and Edg-1 antagonists 101 and 102.

[1] = test system: human umbilical vein endothelial cells; experiment: S1P induced calcium response in human umbilical vein endothelial cells; type: cell-based; details: HUVEC; FIG. 4, 5
Edg-2 = biological target: T1, Edg-2 (Homo sapiens, UniProt Q92633); experiment: Intracellular calcium (FLIPR) assay, HTC cells expressing Edg-2; type: cell-based
T1 construct: expressed in transfected cells; host or cells: HTC rat hepatoma cells
T1 sequence (Q92633 whole entry): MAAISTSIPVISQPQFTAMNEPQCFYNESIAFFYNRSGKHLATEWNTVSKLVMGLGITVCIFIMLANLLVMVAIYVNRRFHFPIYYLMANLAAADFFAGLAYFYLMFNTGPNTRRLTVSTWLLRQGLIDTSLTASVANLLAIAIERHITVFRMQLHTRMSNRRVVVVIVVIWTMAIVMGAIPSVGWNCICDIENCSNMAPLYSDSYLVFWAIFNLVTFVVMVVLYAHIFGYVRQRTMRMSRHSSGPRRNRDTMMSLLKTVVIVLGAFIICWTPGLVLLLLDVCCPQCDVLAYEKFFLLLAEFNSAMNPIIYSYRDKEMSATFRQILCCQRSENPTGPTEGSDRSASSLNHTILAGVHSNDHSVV

human Edg-1 receptors [2] = biological target: T2, human Edg-1 receptors (Homo sapiens, UniProt P21453); experiment: Intracellular calcium (FLIPR) assay, HTC cells expressing Edg-1; type: cell-based; design: Edg 1 IC50 μM; fused on or other part: in the chimera reading: the third intracellular loop (i3) of Edg-3 (S1PR3) in place of Edg-1's own
T2 sequence (P21453 whole entry, the tested form may be a part): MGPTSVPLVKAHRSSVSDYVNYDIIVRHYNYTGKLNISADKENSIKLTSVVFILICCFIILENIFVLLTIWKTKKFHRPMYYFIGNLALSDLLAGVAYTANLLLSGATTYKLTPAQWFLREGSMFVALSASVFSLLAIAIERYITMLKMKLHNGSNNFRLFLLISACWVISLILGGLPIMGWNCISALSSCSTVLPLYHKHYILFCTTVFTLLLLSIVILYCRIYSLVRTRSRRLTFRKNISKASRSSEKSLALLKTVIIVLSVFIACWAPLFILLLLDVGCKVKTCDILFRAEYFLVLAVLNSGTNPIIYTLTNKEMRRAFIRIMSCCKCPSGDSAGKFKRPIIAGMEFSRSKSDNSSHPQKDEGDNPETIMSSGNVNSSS
Description: (§1) The compounds were tested in HTC cells expressing human Edg-1 receptors. […] The compounds were tested in this recombinant system first, and subsequently tested in cell lines expressing Edg-1 (in addition to other Edg receptors).
(§2) […] receptors such as Edg-1, couple to calcium effector pathways, and result in increases in intracellular calcium following receptor activation (An, 1998, J. Cell Biochem. Supp 30-31:147-157). This biological response lends itself to a very efficient, high-throughput screen using a Fluorescence Imaging Plate Reader (FLIPR; Molecular Devices, Sunnyvale, Calif.). The FLIPR system is a real-time, cell-based assay system with continuous fluorescence detection using a cooled CCD camera. The FLIPR system was used to develop an Edg-1 receptor screen. Rat hepatoma cells stably expressing Edg-1/3i3 chimera or Edg-1 and Gqi were plated on 384-well plates and loaded with a calcium dye loading kit (Molecular Devices, Sunnyvale, Calif.) for 1 hour at room temperature. Cells were then placed on the FLIPR^384 (Molecular Devices, Sunnyvale, Calif.) and excited by an argon laser at 488 nm. The data for the entire 384-well plate was updated every second. An integrated robotic pipettor allowed for simultaneous compound addition into each individual well in the plate.

Edg-7 = biological target: T3, Edg-7 (Homo sapiens, UniProt Q9UBY5); experiment: Intracellular calcium (FLIPR) assay, HTC cells expressing Edg-7; type: cell-based
T3 construct: expressed in transfected cells; host or cells: HTC rat hepatoma cells
T3 sequence (Q9UBY5 1-353): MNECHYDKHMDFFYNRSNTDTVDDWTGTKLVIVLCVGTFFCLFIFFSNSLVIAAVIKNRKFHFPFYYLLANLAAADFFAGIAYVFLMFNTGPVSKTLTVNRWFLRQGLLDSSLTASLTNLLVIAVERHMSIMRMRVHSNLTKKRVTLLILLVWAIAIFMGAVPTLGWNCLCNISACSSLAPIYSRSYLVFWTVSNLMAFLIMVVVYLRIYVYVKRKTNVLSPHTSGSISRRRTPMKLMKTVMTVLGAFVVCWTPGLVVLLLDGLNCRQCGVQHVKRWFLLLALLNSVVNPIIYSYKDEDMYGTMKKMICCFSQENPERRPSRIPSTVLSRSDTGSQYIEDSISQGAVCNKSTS

human Edg-1 receptors [3] = biological target: T2, human Edg-1 receptors; experiment: Intracellular calcium (FLIPR) assay, HTC cells expressing Edg-1; type: cell-based; design: expressed in transfected cells; host or cells: HTC rat hepatoma cells; details: agonist; Edg 1/Gqi
Description: as §1, §2

[4] = test system: human peripheral blood mononuclear cells; experiment: Migration of human peripheral blood mononuclear cells; type: cell-based; details: chemoattractant; FIG. 9, 13
Description: S1P is a strong chemoattractant to human PBMCs. […] Several migration assays were performed to test this hypothesis and to determine the effect of Edg-1 agonists and antagonists on S1P mediated chemotaxis. The migration assays were performed according to the protocol described in Section 7.12, below. The results of theses assays are presented in FIG. 6, FIG. 7, FIG. 8, FIG. 9 and FIG. 13.
Cells were plated in a 24 well format using Fluoroblok filter insert plates ([…] pore size) or Fluoroblok matrigel coated filter insert plates (Becton Dickinson, San Diego, Calif.). The assay was a modified Boyden Chamber assay in which a cell suspension (1×10^5 cells/ml) was prepared in serum free medium and added to the top chamber. LPA or S1P (doses ranged from 0.1-10 μM in serum free medium) was added to the bottom chamber. Following a 20-24 hour incubation period, the number of cells migrating or invading into the lower chamber was quantitated by transferring the filter insert into a fresh 24-well plate containing 4 μg/ml calcein AM (Molecular Probes, Sunnyvale, Calif.) in Hank's Balanced Salt Solution and staining for one hour.
Detection was via fluorescent readout at 450 nm excitation/530 nm emission using a fluorimeter. The level of fluorescence correlated with cell number.
Human PBMCs are isolated from the buffy coats of healthy donors from the Stanford Blood Center. […]

Null/Gqi = experiment: Intracellular calcium (FLIPR) assay, Null/Gqi control cells; type: cell-based; details: Rattus norvegicus; agonist
[5] = concentrations as high as 20 μM
[6] = agonist, concentrations as high as 25 μM

Row | Compound | effect on exodus-2-stimulated T cell migration (mouse T cells) | inhibition of S1P induced calcium responses [1] | IC50 (Edg-2; Table 2, LPA-stimulated) [µM] | inhibition of LPA-stimulated calcium increases in HTC cells expressing Edg-2 (Edg-2; [5]) | melting point [°C] | inhibition of Edg-1 receptors (human Edg-1 receptors [2]; FIG. 1-3) | IC50 (human Edg-1 receptors [2]; Table 2, inhibition of S1P response, read-out: Edg 1 IC50) [µM] | IC50 (Edg-7; Table 2, LPA-stimulated) [µM] | inhibition of LPA-stimulated calcium increases in HTC cells expressing Edg-7 (Edg-7; [5]) | EC50 (Edg-2; agonist) [µM] | calcium response in HTC cells expressing Edg-2 (Edg-2; [6]) | EC50 (human Edg-1 receptors [3]) [µM] | migration of human peripheral blood mononuclear cells [4] | EC50 (Edg-7; agonist) [µM] | calcium response in HTC cells expressing Edg-7 (Edg-7; [6]) | EC50 (Null/Gqi) [µM]
1 | O=C(c1cccnc1)N1N=C(c2ccc(Br)cc2)CC1(O)C(F)(F)F (stereo not shown) [Compound 102] | enhance exodus-2-stimulated migration | inhibits S1P induced calcium responses in a dose-dependent manner | > 20 | did not inhibit | 150 to 152 | specifically inhibited | 1.69 | > 20 | did not inhibit |  |  |  |  |  |  | 
2 | COc1cc(C(=O)c2cc(Cl)ccc2N)cc(OC)c1OC [Compound 104, (2-Amino-5-chlorophenyl)-(3,4,5-trimethoxyphenyl)methanone] |  |  |  |  |  |  |  |  |  | > 25 | did not elicit a calcium response | 10 | stimulates migration of human peripheral blood mononuclear cells at micromolar concentrations | > 25 | did not elicit a calcium response | > 25

From US20040147562A1, “Methods of treating conditions associated with an EDG-1 receptor” (priority 2002, published 2004)
